The subject of one series is HEK293T cells. Description: Contact cytotoxicity of hydrogels, Alamar Blue colorimetric assay. The class given is cell-based. The following applies: hydrogels at 0.25, 0.5 and 1% (w/v), cells seeded on hydrogel, 24 h, repeated at least three times. As to the method: With this in mind, the cytotoxicity of lead candidates N-benzoyl 2, N-naphthoyl 3, and BA 9 (para) from the antibacterial studies were examined against HEK293T cells, as a robust mammalian cell model. As the antibacterial activity of the 2, 3 and 9 was evaluated in the gel phase, contact cytotoxicity of hydrogels at concentrations of 0.25, 0.5, and 1% (w/v) was examined.
Similar to previously reported method, cytotoxicity measurement was performed using an Alamar Blue colorimetric assay on HEK293T cells. HEK293T cells were passaged using standard cell culture procedures. Cells were detached with trypsin and centrifuged (1000 rpm for 3 min). After supernatant was removed, the cells were re-suspended in Dulbecco’s Modified Eagle Medium (DMEM) at a concentration of 60,000 cells/mL. Cells were seeded onto hydrogels at a concentration of 6,000 cells/well. Hydrogels were prepared as described above and 100 µL cast into the wells of a 96 well plate in triplicate. After incubating overnight, 100 µL media was added to the set hydrogels and incubated overnight. The following day, excess media was aspirated and cells seeded atop the hydrogels as above. After incubation for 24 hours, 10 µL Alamar Blue was added to each well, followed by further incubation for another 4 hours. […] BioRad Benchmark plate reader was used to measure the absorbance at 570 nm and 596 nm. […]

Assay in series [1]: not given
This is another data set of the same source.

Series [2] is described as follows: Hydrogel formation, critical gel concentration and gelation time by vial inversion test. Type of series: physicochemical. An excerpt:
Several triggers such as physical stimuli, pH switch, solvent switch, or a combination of these, were employed to assess the self-assembly of compounds 1–11 in water. Initially, hydrogel formation of compounds 1–11, at 1% (w/v), was investigated using a combination of pH switch and temperature switch. The compounds were heated in dilute sodium hydroxide (NaOH) in order to deprotonate the carboxylic acid group at the C-terminus of the short peptides.
Compared to a mineral acid, GdL promotes the formation of a homogenous hydrogel due to its slow hydrolysis and fast dissolution rate in water[39],[40].
In addition, the effect of salt which can induce gelation in basic peptide solutions[41], due to high ionic was also investigated for peptides 1–11.
In a final attempt to induce gelation in peptides 4, 7 and 11, a solvent switch method using dimethyl sulfoxide (DMSO), methanol, or ethanol as co-solvent was employed[42]–[47]. […] Given that these hydrogels were designed with antibacterial applications in mind, due to the potential toxicity concerns arising from the use of organic co-solvents, further characterisation of peptides 4, 7 and 11 was not carried out.
The critical gel concentration (CGC) represents the minimum amount of the anthranilamide-based short peptide required to form a hydrogel. The CGC of anthranilamide-based short peptides were qualitatively assessed by varying the short peptide concentrations and conducting vial inversion test[48]–[50]. […] Here, gelation time represents the time required for these short peptides, at 1% (w/v), to form self-supporting hydrogels as assessed through the vial inversion test.
To a pre-weighed compound in a glass vial, 1 M NaOH (2–8 molar equiv.) was added followed by addition of Mili-Q water. The suspension was then heated and vortexed vigorously for 15 minutes to completely dissolve the compound. In the case of N-acetyl 1, N-benzoyl 2, N-naphthoyl 3, fluoro 5 and methyl 6, these clear solutions were left to cool to room temperature for 1–30 minutes. GdL (2–3 equiv.) was added to a solution of compounds 7–11 in NaOH. […]

The subject of a further series is S. aureus. The conditions noted are these: cited from earlier work. The procedure:
With a complete understanding of the hydrogel ultrastructure now in-hand, the antibacterial activity of N-acetyl 1, N-benzoyl 2 and N-naphthoyl 3 was assessed, in order to evaluate the effect of increased hydrophobicity on antibacterial activity. Further, the stiffest (BA 9) and softest (methyl 6) of the remaining gelators were tested to discern the relationship of hydrogel stiffness to antimicrobial activity. Staphylococcus aureus, the most common causative organism for skin and soft tissue infections, was chosen as the bacterial strain to assess the hydrogels antibacterial activity. Thes ...

Series [3] can be described thus: Temperature dependent CD spectroscopy (thermal denaturation). Type of series: physicochemical. The following applies: temperature increased from 25 °C to 60 °C; diluted hydrogel. As to the method:
In addition, CD spectroscopy was also used as a tool to investigate gradual thermal denaturation of anthranilamide-based short peptides.
The anthranilamide-based hydrogels were prepared at 0.8% (w/v) and were diluted 10 times before being transferred into a 0.5 mm path length cuvette. Meanwhile, for the concentration dependence, the hydrogel made from N-benzoyl 2 at 0.8% (w/v) was diluted to make up concentrations ranging from 0.058 mM – 0.470 mM before being transferred into a 0.5 mm path length cuvette.
CD spectrum were obtained using a ChirascanPlus CD spectrometer (Applied Photophysics, UK) scanning wavelengths of 180–500 nm with a bandwidth of 1 nm, 0.6 s per point, and step of 1 nm[22]. The outcome of three experiments were then averaged and plotted into a single plot value. The high tension (HT) value of each experiment was maintained to be below 600 mV (Fig. S17).

Square brackets hold non-standard residues; d marks the D form. Peptide text beside a SMILES is read from it. * marks the point of attachment. 2Abz = Nc1ccccc1C(=O)O; Bz = O=C(c1ccccc1)*

In turn, `O=C(Nc1ccccc1C(=O)N[C@@H](Cc1ccccc1)C(=O)N[C@@H](Cc1ccccc1)C(=O)O)c1ccc2ccccc2c1` [compound 3] showed a Gʹ (stiffness) of 5.7 kPa. In addition, the “Cytotoxicity towards HEK cells” value with HEK293T cells is given as “poor cell viability”.

In turn, `CC(=O)Nc1ccccc1C(=O)N[C@@H](Cc1ccccc1)C(=O)N[C@@H](Cc1ccccc1)C(=O)O` (Ac-[2Abz]-Phe-Phe-OH) registered an amide I peak (disordered coil) in series [1] of 1650 cm⁻¹.

As to `O=C(N[C@@H](Cc1ccccc1)C(=O)N[C@@H](Cc1ccccc1)C(=O)O)c1ccccc1NS(=O)(=O)c1cccc2ccccc12` [compound 4], the Hydrogel formation outcome in series [2] (1% (w/v), heated in dilute NaOH, cooled to room temperature (pH switch and temperature switch), up to 48 hours) is on record as “remained as clear solutions”; in series [2] (3 equivalents of GdL added to basic solution) it was “white precipitate”; in series [2] (solvent switch, DMSO: water at 1% w/v) it was “gels were observed only for the first 5 minutes”.

As to `[Na+].[OH-]` [NaOH, sodium hydroxide], the minimal inhibitory concentration (MIC) in the series on S. aureus is 7500 µg/mL.

In turn, `O=C(Nc1ccccc1C(=O)N[C@@H](Cc1ccccc1)C(=O)N[C@@H](Cc1ccccc1)C(=O)O)c1ccccc1` [compound 2] ({Bz-2Abz}-Phe-Phe-OH) yielded a Gʹ (stiffness) of 16.9 kPa. In the series on HEK293T cells, the “Cytotoxicity towards HEK cells” value is on record as “moderate cytotoxicity”. Moreover, the “Thermal stability of ß-sheet secondary structure (CD)” value in series [3] is listed as “no significant conformational changes”.

(Values after article PMC6972728, “Anthranilamide-based Short Peptides Self-Assembled Hydrogels as Antibacterial Agents” (Scientific Reports, 2020).)
